Assay results published in patent US9956187B2 (priority 2014, dated 2018).
Where a name gives a salt, the structure may show the parent alone.

Tests used:
[1] = tested on: chronic constriction injury (CCI) rats; assay: Thermal hyperalgesia, paw withdrawal latency in CCI model; type: in vivo, rat; details: 3 mg/kg IP daily, days 1-10 after CCI, vs NS group, P<0.05
Description: CCI procedures on the sciatic nerve of male SD rats were performed as previously described. Briefly, after rats were anesthetized by i.p. injection of sodium pentobarbital (40 mg/kg), the right sciatic nerve of the mid-thigh level was exposed. Chromic gut 4-0 was loosely tied around the nerve for 4 ligatures with about 1 mm between knots. The ligation was performed to just barely reduce the diameter of sciatic nerve. […] In the sham group, the sciatic nerve was exposed without ligation. The incisions of rats were closed in layers. After recovery from anesthesia, rats were housed individually in the clear plastic cages with soft bedding covered with 3-6 cm of sawdust.
Same volume of normal saline (2 ml) was injected in the other two groups at the same time.
The paw withdrawal latency (PWL) to radiant heat was used to evaluate thermal hyperalgesia for nociceptive response as previously described. Rats were placed in transparent plexiglass cage (23×18×13 cm) with a piece of 3-mm-thick glass floor and received heat radiation after acclimating to the environments for 30 minutes. […] A digital timer automatically measured the duration between the starting of heat and the paw withdrawal, which was considered as the PWL. The PWL was measured in 0.1 second and a maximum of 20 seconds exposure to radiation was set to avoid injury. […]

[2] = target: T1, KOR (Homo sapiens, UniProt P41145); assay: biochemical; type: binding
T1 construct: expressed in transfected cells
Description: (§1) Evidence for interaction was based on the inhibition of the reference ligand-binding signal. […] Briefly, 50 μL aliquots of radioactive ligand (5 nM) were added to wells of a 96-well plate, which contained 25 μL of the reference or test ligands. We employed transfected cell lines expressing mainly human (unless otherwise specified) recombinant receptors, monoamine transporters, or ion channels for crude membrane preparation. Detailed information about our membrane preparation is well known in the art and can be obtained from publicly available protocol online. Crude membrane fractions containing the receptors were resuspended in standard binding buffer and 50 μL aliquots added to each well. The reactions were incubated at room temperature for 1.5 hours to allow for radioligand binding equilibration. Bound radioactivity was harvested by rapid filtration through a 0.3% polyethyleneimine-treated, 96-well filter mats using a 96-well Filtermate harvester. The dried filters were treated with melted scintillant and a Microbeta scintillation counter was utilized to measure the radioactivity retained on the filter.

[3] = target: T2, H1 (Homo sapiens, UniProt P35367); assay: biochemical; type: binding
T2 construct: expressed in transfected cells
Description: as §1

[4] = target: T3, MOR (Homo sapiens, UniProt P35372); assay: biochemical; type: binding
T3 construct: expressed in transfected cells
Description: as §1

[5] = hydrobromide salt; cited from earlier work
[6] = Solubilizing dezocine in formulations
Source text: All further solutions were created at about pH 4. […] No higher concentrations were attempted with this formulation.

[7] = target: T4, human cloned SERT (Homo sapiens, UniProt P31645); assay: Serotonin reuptake assay in HEK 293 cells; type: cell-based; details: mean±SE
T4 construct: expressed in transfected cells
Description: In brief, Human Embryonic Kidney 293 cells were plated in Poly-L-Lys (PLL) coated 384-well black clear bottom cell culture plates in DMEM+1% dFBS, at a density of 15,000 cells per well in a total volume of 40 μl. The cells were incubated for a minimum of 6 hours before use in the assays. The medium was removed and 20 μL of assay buffer (20 mM HEPES, 1×HBSS, pH 7.40) was added, followed by 5 μL of 5× drug solutions. The plate was incubated at 37° C. for 30 min. After the incubation, 25 μL of dye solution was added and fluorescence intensity was measured after […] at 37° C., using FlexStation II (bottom read mode, Excitation at 440 nm, Emission at 520 nm with 510 nm cut-off) from the Molecular Devices. […] The half maximal inhibitory concentration were determined and expressed as pIC50 (pIC50=−log (IC50)).

[8] = target: kappa opioid receptor (Homo sapiens, UniProt P41145); type: biochemical; set-up: purchased Millipore (Billerica, Mass.); host or cells: Chem-5 mammalian cell line; details: ligand alone
Source text: Membrane preparations of recombinant human kappa opioid receptor expressed in the mammalian cell line Chem-5 were obtained from Millipore (Billerica, Mass.). The effects of specific kappa opioid receptor ligands on the activation of the recombinant receptor were investigated by measuring G protein activation in vitro.
The assay reports the initial rates of activation of heterotrimeric G proteins (Gαii1β1γ2) on an agonist-bound receptor by measuring the accumulation of [^35S]-GTPγS (non-hydrolyzable analog of GTP) bound to the activated Gαi1 subunit. […] The G protein activation assay was conducted as follows (final concentrations in 50 μL reaction mixture are given in parentheses): the membrane sample was diluted into ice-cold 10 mM 3-(N-morpholino)propanesulfonic acid (MOPS) buffer to reach a protein concentration of 40 ng/μL. 10 μL of the diluted dispersion were dispensed into pre-siliconized glass tubes and mixed with the ligand in MOPS buffer containing 0.1% (w/v) BSA. Upon addition of a mixture of Gαi1 (100 nM) and Gβ1γ2 (500 nM), the tubes were incubated on ice for 30 minutes. The reaction was started by addition of MOPS buffer pH=7.5 (50 mM), EDTA (1 mM), MgCl2 (3 mM), GDP (4 μM), BSA (0.3% w/v), NaCl (100 mM), DTT (1 mM), and [^35S]-GTPγS (5 nM, 1250 Ci/mmol) followed by rapid transfer of the tubes to a water bath at 30° C. The incubation continued for 45 minutes. The reaction was terminated by addition of 2 mL of ice-cold stop solution, TNMg (20 mM Tris-HCl pH=8.0, 100 mM NaCl, and 25 mM MgCl2). The reaction mixture was rapidly filtered through nitrocellulose filters (Millipore). Filters were washed four times with 2 mL each of cold TNMg buffer, dried, placed in scintillation vials filled with ScintiSafe Econo F scintillation liquid (Fisher, Waltham, Mass.), and the radioactivity counted. Duplicate samples corresponding to every ligand concentration point were counted.

[9] = target: T5, Alpha2A (Homo sapiens, UniProt P08913); assay: Primary radioligand binding screen
T5 construct: expressed in transfected cells
Description: as §1

[10] = target: T6, M4 (Homo sapiens, UniProt P08173); assay: Primary radioligand binding screen
T6 construct: expressed in transfected cells
Description: as §1

[11] = target: T7, SERT (Homo sapiens, UniProt P31645); assay: Primary radioligand binding screen
T7 construct: expressed in transfected cells
Description: as §1

[12] = target: T8, 5-HT2B (Homo sapiens, UniProt P41595); assay: Primary radioligand binding screen
T8 construct: expressed in transfected cells
Description: as §1

[13] = target: T9, H3 (Homo sapiens, UniProt Q9Y5N1); assay: Primary radioligand binding screen
T9 construct: expressed in transfected cells
Description: as §1

[14] = target: T10, Beta3 (Homo sapiens, UniProt P13945); assay: Primary radioligand binding screen
T10 construct: expressed in transfected cells
Description: as §1

[15] = target: T11, Alpha2C (Homo sapiens, UniProt P18825); assay: Primary radioligand binding screen
T11 construct: expressed in transfected cells
Description: as §1

[16] = target: T12, 5-HT6 (Homo sapiens, UniProt P50406); assay: Primary radioligand binding screen
T12 construct: expressed in transfected cells
Description: as §1

[17] = target: T13, M3 (Homo sapiens, UniProt P20309); assay: Primary radioligand binding screen
T13 construct: expressed in transfected cells
Description: as §1

[18] = target: T14, Alpha1A (Homo sapiens, UniProt P35348); assay: Primary radioligand binding screen
T14 construct: expressed in transfected cells
Description: as §1

[19] = target: T15, D5 (Homo sapiens, UniProt P21918); assay: Primary radioligand binding screen
T15 construct: expressed in transfected cells
Description: as §1

[20] = target: T16, D2 (Homo sapiens, UniProt P14416); assay: Primary radioligand binding screen
T16 construct: expressed in transfected cells
Description: as §1

[21] = Solubility in 20% cyclodextrin by HPLC; type: physicochemical; details: aqueous with cosolvent or surfactant or cyclodextrin, thermodynamic from solid, room temperature
Source text: It was filtered with 0.2 μm PTFE syringe filter after stirring for 24 hrs.

T9 sequence (Q9Y5N1 whole entry): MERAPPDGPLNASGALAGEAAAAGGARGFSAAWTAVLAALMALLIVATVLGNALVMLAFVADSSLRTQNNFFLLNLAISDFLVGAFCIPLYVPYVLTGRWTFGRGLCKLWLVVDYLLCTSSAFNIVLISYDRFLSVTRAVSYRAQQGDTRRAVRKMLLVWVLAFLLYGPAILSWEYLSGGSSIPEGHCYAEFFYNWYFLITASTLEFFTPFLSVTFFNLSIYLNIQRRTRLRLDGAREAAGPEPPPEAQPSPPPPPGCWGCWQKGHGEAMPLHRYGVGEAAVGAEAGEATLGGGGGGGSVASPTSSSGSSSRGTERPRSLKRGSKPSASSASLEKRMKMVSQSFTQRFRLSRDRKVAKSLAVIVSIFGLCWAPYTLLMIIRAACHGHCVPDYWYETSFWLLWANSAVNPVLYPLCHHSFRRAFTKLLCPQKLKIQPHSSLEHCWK
T12 sequence (P50406 whole entry): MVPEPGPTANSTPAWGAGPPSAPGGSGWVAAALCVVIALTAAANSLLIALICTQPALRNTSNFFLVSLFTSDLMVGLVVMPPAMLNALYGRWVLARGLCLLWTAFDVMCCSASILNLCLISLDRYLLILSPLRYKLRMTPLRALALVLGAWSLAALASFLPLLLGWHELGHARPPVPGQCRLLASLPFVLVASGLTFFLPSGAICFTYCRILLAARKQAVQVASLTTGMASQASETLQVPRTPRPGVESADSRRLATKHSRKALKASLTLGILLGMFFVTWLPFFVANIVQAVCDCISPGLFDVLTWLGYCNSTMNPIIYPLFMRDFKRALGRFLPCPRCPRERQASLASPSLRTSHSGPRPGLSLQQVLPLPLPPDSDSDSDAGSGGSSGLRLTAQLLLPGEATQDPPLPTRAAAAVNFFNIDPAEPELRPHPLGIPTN
T4 sequence (P31645 whole entry): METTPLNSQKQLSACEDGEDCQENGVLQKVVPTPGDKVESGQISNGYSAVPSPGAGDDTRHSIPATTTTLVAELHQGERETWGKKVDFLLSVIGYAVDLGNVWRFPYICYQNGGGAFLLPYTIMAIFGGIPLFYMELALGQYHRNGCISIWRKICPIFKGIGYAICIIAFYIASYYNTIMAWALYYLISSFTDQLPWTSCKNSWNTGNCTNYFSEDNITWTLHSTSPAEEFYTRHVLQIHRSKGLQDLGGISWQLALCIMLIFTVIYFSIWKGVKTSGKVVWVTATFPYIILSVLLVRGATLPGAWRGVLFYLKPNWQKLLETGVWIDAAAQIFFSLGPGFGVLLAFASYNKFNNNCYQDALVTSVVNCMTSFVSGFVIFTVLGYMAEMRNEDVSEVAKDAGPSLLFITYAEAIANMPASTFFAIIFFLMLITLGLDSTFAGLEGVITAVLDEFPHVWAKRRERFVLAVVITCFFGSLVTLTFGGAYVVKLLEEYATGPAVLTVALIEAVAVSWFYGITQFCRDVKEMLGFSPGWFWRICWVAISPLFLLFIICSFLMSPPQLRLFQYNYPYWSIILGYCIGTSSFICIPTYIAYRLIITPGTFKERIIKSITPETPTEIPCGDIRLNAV
T7 sequence (P31645 whole entry): as above
T5 sequence (P08913 whole entry): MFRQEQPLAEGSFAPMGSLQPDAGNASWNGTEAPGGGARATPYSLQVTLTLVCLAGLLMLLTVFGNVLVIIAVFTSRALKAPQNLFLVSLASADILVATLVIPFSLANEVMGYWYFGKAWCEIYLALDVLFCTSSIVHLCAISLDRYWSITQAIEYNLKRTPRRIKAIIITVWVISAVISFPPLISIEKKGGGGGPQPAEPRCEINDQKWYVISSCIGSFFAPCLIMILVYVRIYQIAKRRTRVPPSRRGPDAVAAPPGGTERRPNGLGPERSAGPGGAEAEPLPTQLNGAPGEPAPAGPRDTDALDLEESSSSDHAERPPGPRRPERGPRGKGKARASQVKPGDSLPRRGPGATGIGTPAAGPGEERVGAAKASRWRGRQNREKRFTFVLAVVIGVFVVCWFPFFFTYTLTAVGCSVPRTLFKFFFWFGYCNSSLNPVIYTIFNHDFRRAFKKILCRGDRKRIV
T10 sequence (P13945 whole entry): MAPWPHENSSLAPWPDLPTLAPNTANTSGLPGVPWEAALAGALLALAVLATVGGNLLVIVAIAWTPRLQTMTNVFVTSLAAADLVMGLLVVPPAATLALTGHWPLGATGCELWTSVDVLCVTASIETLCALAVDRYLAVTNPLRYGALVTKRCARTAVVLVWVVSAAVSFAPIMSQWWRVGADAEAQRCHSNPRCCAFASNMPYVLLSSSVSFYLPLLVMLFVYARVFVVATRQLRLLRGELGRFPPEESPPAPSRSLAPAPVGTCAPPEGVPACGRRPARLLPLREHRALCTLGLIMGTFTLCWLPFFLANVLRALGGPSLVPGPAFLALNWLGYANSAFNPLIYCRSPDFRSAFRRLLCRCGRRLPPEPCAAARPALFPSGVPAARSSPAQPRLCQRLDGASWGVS
T6 sequence (P08173 whole entry): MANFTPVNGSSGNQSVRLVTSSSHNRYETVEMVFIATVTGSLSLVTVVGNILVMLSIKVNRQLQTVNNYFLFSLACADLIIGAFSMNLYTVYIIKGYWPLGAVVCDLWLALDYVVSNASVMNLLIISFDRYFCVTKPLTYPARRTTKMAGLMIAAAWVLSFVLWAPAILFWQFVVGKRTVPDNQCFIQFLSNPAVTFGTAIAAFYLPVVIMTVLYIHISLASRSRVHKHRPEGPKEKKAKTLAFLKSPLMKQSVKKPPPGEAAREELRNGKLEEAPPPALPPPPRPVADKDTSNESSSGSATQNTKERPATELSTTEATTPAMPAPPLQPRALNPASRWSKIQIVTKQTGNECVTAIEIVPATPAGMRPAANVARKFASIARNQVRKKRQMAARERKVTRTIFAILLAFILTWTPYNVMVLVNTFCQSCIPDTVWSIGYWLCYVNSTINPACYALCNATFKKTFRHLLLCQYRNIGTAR
T13 sequence (P20309 whole entry): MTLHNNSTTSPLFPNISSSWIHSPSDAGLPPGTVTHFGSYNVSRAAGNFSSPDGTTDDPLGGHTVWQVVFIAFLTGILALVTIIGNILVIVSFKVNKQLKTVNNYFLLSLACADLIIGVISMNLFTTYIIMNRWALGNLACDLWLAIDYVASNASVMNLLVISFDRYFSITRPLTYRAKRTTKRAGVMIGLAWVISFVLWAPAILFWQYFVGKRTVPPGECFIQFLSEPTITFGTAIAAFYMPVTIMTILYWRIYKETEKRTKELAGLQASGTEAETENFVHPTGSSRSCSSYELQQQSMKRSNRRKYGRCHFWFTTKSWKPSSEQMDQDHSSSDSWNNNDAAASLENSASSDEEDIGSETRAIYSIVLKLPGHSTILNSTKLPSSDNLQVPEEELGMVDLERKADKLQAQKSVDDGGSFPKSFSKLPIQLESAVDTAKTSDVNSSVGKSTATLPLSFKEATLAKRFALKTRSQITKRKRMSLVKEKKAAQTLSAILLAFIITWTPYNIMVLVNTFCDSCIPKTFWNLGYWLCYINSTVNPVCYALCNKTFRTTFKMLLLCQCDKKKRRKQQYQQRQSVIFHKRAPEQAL
T8 sequence (P41595 whole entry): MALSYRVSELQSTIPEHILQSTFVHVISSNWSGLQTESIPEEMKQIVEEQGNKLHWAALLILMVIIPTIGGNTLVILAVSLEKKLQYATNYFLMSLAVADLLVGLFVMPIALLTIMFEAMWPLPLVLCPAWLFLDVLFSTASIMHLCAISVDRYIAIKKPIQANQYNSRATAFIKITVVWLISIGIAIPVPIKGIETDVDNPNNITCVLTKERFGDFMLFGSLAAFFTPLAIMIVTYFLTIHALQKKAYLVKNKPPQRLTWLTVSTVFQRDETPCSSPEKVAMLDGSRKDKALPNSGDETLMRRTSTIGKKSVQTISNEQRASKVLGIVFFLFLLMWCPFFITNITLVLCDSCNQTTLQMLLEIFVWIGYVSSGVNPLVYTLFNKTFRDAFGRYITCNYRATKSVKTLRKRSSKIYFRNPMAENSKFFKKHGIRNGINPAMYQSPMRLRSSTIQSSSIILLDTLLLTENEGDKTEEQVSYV
T3 sequence (P35372 whole entry): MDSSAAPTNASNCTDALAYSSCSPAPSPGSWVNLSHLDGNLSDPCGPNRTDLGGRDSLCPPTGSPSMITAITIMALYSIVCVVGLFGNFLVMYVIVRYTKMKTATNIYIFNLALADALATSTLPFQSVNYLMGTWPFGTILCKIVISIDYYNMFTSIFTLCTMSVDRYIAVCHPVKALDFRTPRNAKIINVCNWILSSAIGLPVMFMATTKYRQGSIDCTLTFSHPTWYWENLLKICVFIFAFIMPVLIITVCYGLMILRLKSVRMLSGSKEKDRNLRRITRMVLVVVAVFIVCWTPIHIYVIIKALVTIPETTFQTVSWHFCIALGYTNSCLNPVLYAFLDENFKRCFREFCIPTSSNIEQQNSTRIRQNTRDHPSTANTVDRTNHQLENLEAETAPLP

## C[C@@]12CCCCC[C@@H](Cc3ccc(O)cc31)[C@@H]2N [Dezocine, (−)-13β-amino-5,6,7,8,9,10,11,12-octahydro-5α-methyl-5,11-methanobenxocyclodecen-31-ol, hydrobromide]
[1]
  paw withdrawal latency (PWL): significantly improved
[2]
  inhibition at 10 µM: 91.3%
[3]
  inhibition at 10 µM: 20.7%
[4]
  inhibition at 10 µM: 89.6%
[5]
  solubility of the salt: 20 mg/mL
[6]; 31% Propylene Glycol, 1% Lactic Acid, highest concentration attempted
  Maximum Dezocine Concentration: 30 mg/mL
[6]; 31% propylene glycol, 6% PVOH solution, pH 4, aqueous with cosolvent or surfactant or cyclodextrin
  solubility: 10 mg/mL
[6]; 50% Propylene Glycol
  Maximum Dezocine Concentration: 2 mg/mL
[6]; Ethanol (200-proof), highest concentration attempted
  Maximum Dezocine Concentration: 1 mg/mL
[6]; Propylene Glycol (pure)
  Maximum Dezocine Concentration: 10 mg/mL
[6]; Water
  Maximum Dezocine Concentration: insoluble
[6]; water
  solubility: < 1 mg/mL
[7]
  pIC50 of SERT (serotonin reuptake): 5.86±0.17
[8]
  G protein activation in the presence of kappa receptor: no significant G protein activation
[9]
  inhibition at 10 µM: 40.9%
[10]
  inhibition at 10 µM: 2.5%
[11]
  inhibition at 10 µM: 97.7%
[12]
  inhibition at 10 µM: -11.9%
[13]
  inhibition at 10 µM: -1.6%
[14]
  inhibition at 10 µM: -15%
[15]
  inhibition at 10 µM: -7.9%
[16]
  inhibition at 10 µM: 10.9%
[17]
  inhibition at 10 µM: -3.4%
[18]
  inhibition at 10 µM: 4.9%
[19]
  inhibition at 10 µM: -6.3%
[20]
  inhibition at 10 µM: -3.8%
[21]; 20% 2-Hydroxypropyl-β-cyclodextrin (HPBCD)
  solubility at 24 h: 18 ± 1 mg/mL
[21]; 20% 2-Hydroxypropyl-γ-cyclodextrin (HPGCD)
  solubility at 24 h: 24 ± 1 mg/mL
